In patent EP3046573B1, “AMYLIN ANALOGUES” (Zealand Pharma A/S, priority 2013, dated 2015):
Like-named read-outs stand apart in the source and are kept apart here. Numbered stars: 1 amine (or outer) side, 2 acyl side, 3 side chain; on linkers, the order of the positions; unused ones are H or OH. Bridge positions count the residues as written; N and C are the ends. Square brackets hold non-standard residues; d marks the D form. Peptide text beside a SMILES is read from it. * marks the point of attachment. Pro(4R-Bn) = O=C(O)[C@@H]1C[C@@H](Cc2ccccc2)CN1; C20 diacid = O=C(O)CCCCCCCCCCCCCCCCCCC(=O)*; γGlu = O=C(O)[C@H](CCC(=O)[*:2])N[*:1]; NMeI = CC[C@H](C)[C@H](NC)C(=O)O; Sar = CNCC(=O)O

Tests used:
[1] = target: T1, human calcitonin receptor (hCTR2) (Homo sapiens, UniProt P30988); experiment: hCTR2 assay: induction of cAMP (AlphaScreen cAMP Assay kit) in COS7 cells expressing hCTR2; format: cell-based
T1 construct: expressed in transfected cells
T1 sequence (P30988 25-474): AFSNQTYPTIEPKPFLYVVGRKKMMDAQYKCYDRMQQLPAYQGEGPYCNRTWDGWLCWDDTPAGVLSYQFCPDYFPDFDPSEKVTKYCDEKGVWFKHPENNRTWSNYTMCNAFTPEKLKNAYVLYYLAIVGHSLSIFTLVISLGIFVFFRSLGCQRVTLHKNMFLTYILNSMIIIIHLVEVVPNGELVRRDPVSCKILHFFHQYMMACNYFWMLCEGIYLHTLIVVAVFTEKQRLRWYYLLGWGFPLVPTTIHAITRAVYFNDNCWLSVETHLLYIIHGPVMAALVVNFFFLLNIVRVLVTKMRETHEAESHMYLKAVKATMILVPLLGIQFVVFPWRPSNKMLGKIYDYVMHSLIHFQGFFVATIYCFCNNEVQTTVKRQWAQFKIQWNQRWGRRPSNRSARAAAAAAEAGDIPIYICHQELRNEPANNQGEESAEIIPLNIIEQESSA
Summary of the method: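 cAMP induction was measured by AlphaScreen in COS7 cells stably expressing hCTR2 without RAMPs, after 15 min at 37° C with increasing peptide concentrations, 100 µM IBMX and 0.1% casein (Tyrode, pH 7.4). A 4-parameter logistic fit gave EC50 and % efficacy versus pramlintide.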

[2] = target: T2, human amylin receptor 3 (hAMYR3) consisting of hCTR2 co-expressed with human Receptor Activity Modifying Protein 3 (hRAMP3) (Homo sapiens, UniProt O60896+P30988); experiment: hAMYR3 assay: induction of cAMP (AlphaScreen cAMP Assay kit) in COS7 cells expressing hAMYR3; format: cell-based
T2 construct: expressed in transfected cells
T2 sequence (P30988 25-474): T1 sequence (P30988 25-474)
T2 sequence (O60896 24-148 partner): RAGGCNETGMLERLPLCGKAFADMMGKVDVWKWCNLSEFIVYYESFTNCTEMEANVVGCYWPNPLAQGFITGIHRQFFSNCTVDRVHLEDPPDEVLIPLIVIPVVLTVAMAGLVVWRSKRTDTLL
Summary of the method: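 cAMP accumulation read by AlphaScreen in lysates of RAMP-naive COS7 cells stably transfected with hCTR2 plus hRAMP3. Cells exposed to peptide dilutions for 15 min, 37° C, with 100 µM IBMX; 4PL fitting gave EC50 and efficacy relative to pramlintide.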

[3] = Solubility assessment (turbidity absorbance at 325 nm); format: physicochemical; settings: stock 2 mg/ml diluted 1:1, ambient temperature (typically 25°C), n=1; for Solubility, Acetate buffer pH 4: 100 mM acetate buffer pH 4.0; for Solubility, Acetate buffer pH 5: 100 mM acetate buffer pH 5.0; for Solubility, Histidine buffer pH 6: 100 mM histidine buffer pH 6.0; for Solubility, Histidine buffer pH 7: 100 mM histidine buffer pH 7.0; for Solubility, Phosphate buffer pH 6: 100 mM phosphate buffer pH 6.0; for Solubility, Phosphate buffer pH 7: 100 mM phosphate buffer pH 7.0; for Solubility, Phosphate buffer pH 7.5: 100 mM phosphate buffer pH7.5
Summary of the method: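 Read-out: turbidity as absorbance at 325 nm (280 nm also read), single samples, ambient temperature of typically 25°C. Samples were a 1:1 mix of 2 mg/ml stock (water, pH 2.5) with 100 mM acetate, histidine or phosphate buffers spanning pH 4.0–7.5. Cut-off: A325 ≤ 0.02 indicates ≥ 1 mg/ml.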

SMILES: CC[C@H](C)[C@@H](C(=O)N[C@@H](CC(C)C)C(=O)N[C@@H](CO)C(=O)N[C@@H](CO)C(=O)N[C@H](C(=O)N[C@@H](CC(N)=O)C(=O)N[C@H](C(=O)NCC(=O)N[C@@H](CO)C(=O)N[C@@H](CC(N)=O)C(=O)N[C@H](C(=O)N1C[C@H](Cc2ccccc2)C[C@H]1C(N)=O)[C@@H](C)O)C(C)C)[C@@H](C)O)N(C)C(=O)[C@H](C)NC(=O)CN(C)C(=O)[C@H](Cc1ccccc1)NC(=O)[C@H](CC(N)=O)NC(=O)[C@H](CC(N)=O)NC(=O)[C@H](CO)NC(=O)[C@H](CO)NC(=O)[C@H](CCCNC(=N)N)NC(=O)[C@H](Cc1c[nH]cn1)NC(=O)[C@H](CC(C)C)NC(=O)[C@H](Cc1ccccc1)NC(=O)[C@H](CCC(=O)O)NC(=O)[C@H](C)NC(=O)[C@H](CC(C)C)NC(=O)[C@H](CCCNC(=N)N)NC(=O)[C@H](CCC(N)=O)NC(=O)[C@@H](NC(=O)[C@H](C)NC(=O)[C@@H]1CSSC[C@H](NC(=O)[C@H](CCCNC(=N)N)NC(=O)CC[C@H](NC(=O)CCCCCCCCCCCCCCCCCCC(=O)O)C(=O)O)C(=O)N[C@@H](CC(N)=O)C(=O)N[C@@H]([C@@H](C)O)C(=O)N[C@@H](C)C(=O)N[C@@H]([C@@H](C)O)C(=O)N1)[C@@H](C)O [Compound 114, [19CD]-isoGlu-RC()NTATC()ATQRLAEFLHRSSNNF-Gly(Me)-A-Ile(Me)-LSSTNVGSNT-Bep-NH2] ({C20 diacid-γGlu}-RCNTATCATQRLAEFLHRSSNNF[Sar]A[NMeI]LSSTNVGSNT[Pro(4R-Bn)]-NH2; disulfide 2-7)
- EC50 [1]: 0.21 nM
- EC50 [2]: 0.18 nM
- Solubility, Acetate buffer pH 4 [3]: SS (SS indicates solubility ≥ 1mg/ml)
- Solubility, Acetate buffer pH 5 [3]: SS (SS indicates solubility ≥ 1mg/ml)
- Solubility, Histidine buffer pH 6 [3]: SS (SS indicates solubility ≥ 1mg/ml)
- Solubility, Histidine buffer pH 7 [3]: II (II indicates solubility ≤ 1 mg/ml)
- Solubility, Phosphate buffer pH 6 [3]: II (II indicates solubility ≤ 1 mg/ml)
- Solubility, Phosphate buffer pH 7 [3]: II (II indicates solubility ≤ 1 mg/ml)
- Solubility, Phosphate buffer pH 7.5 [3]: II (II indicates solubility ≤ 1 mg/ml)

SMILES: CC[C@H](C)[C@@H](C(=O)N[C@@H](CC(C)C)C(=O)N[C@@H](CO)C(=O)N[C@@H](CO)C(=O)N[C@H](C(=O)N[C@@H](CC(N)=O)C(=O)N[C@H](C(=O)NCC(=O)N[C@@H](CO)C(=O)N[C@@H](CC(N)=O)C(=O)N[C@H](C(=O)N[C@@H](Cc1ccccc1)C(N)=O)[C@@H](C)O)C(C)C)[C@@H](C)O)N(C)C(=O)[C@H](C)NC(=O)CN(C)C(=O)[C@H](Cc1ccccc1)NC(=O)[C@H](CC(N)=O)NC(=O)[C@H](CC(N)=O)NC(=O)[C@H](CO)NC(=O)[C@H](CO)NC(=O)[C@H](CCCNC(=N)N)NC(=O)[C@H](Cc1c[nH]cn1)NC(=O)[C@H](CC(C)C)NC(=O)[C@H](Cc1ccccc1)NC(=O)[C@H](CCC(=O)O)NC(=O)[C@H](C)NC(=O)[C@H](CC(C)C)NC(=O)[C@H](CCCNC(=N)N)NC(=O)[C@H](CCC(N)=O)NC(=O)[C@@H](NC(=O)[C@H](C)NC(=O)[C@@H]1CSSC[C@H](NC(=O)[C@H](CCCNC(=N)N)NC(=O)CC[C@H](NC(=O)CCCCCCCCCCCCCCCCCCC(=O)O)C(=O)O)C(=O)N[C@@H](CC(N)=O)C(=O)N[C@@H]([C@@H](C)O)C(=O)N[C@@H](C)C(=O)N[C@@H]([C@@H](C)O)C(=O)N1)[C@@H](C)O [Compound 115, [19CD]-isoGlu-RC()NTATC()ATQRLAEFLHRSSNNF-Gly(Me)-A-Ile(Me)-LSSTNVGSNTF-NH2] ({C20 diacid-γGlu}-RCNTATCATQRLAEFLHRSSNNF[Sar]A[NMeI]LSSTNVGSNTF-NH2; disulfide 2-7)
- EC50 [1]: 0.47 nM
- EC50 [2]: 0.37 nM
- Solubility, Acetate buffer pH 4 [3]: SS (SS indicates solubility ≥ 1mg/ml)
- Solubility, Acetate buffer pH 5 [3]: SS (SS indicates solubility ≥ 1mg/ml)
- Solubility, Histidine buffer pH 6 [3]: SS (SS indicates solubility ≥ 1mg/ml)
- Solubility, Histidine buffer pH 7 [3]: II (II indicates solubility ≤ 1 mg/ml)
- Solubility, Phosphate buffer pH 6 [3]: II (II indicates solubility ≤ 1 mg/ml)
- Solubility, Phosphate buffer pH 7 [3]: SS (SS indicates solubility ≥ 1mg/ml)
- Solubility, Phosphate buffer pH 7.5 [3]: II (II indicates solubility ≤ 1 mg/ml)

SMILES: CC[C@H](C)[C@@H](C(=O)N[C@@H](CC(C)C)C(=O)N[C@@H](CO)C(=O)N[C@@H](CO)C(=O)N[C@H](C(=O)N[C@@H](CCC(=O)O)C(=O)N[C@H](C(=O)NCC(=O)N[C@@H](CO)C(=O)N[C@@H](CCC(=O)O)C(=O)N[C@H](C(=O)N1CCC[C@H]1C(N)=O)[C@@H](C)O)C(C)C)[C@@H](C)O)N(C)C(=O)[C@H](C)NC(=O)CN(C)C(=O)[C@H](Cc1ccccc1)NC(=O)[C@H](CO)NC(=O)[C@H](CO)NC(=O)[C@H](CO)NC(=O)[C@H](CO)NC(=O)[C@H](CCCNC(=N)N)NC(=O)[C@H](Cc1c[nH]cn1)NC(=O)[C@H](CC(C)C)NC(=O)[C@H](Cc1ccccc1)NC(=O)[C@H](CCC(=O)O)NC(=O)[C@H](C)NC(=O)[C@H](CC(C)C)NC(=O)[C@H](CCCNC(=N)N)NC(=O)[C@H](CCC(=O)O)NC(=O)[C@@H](NC(=O)[C@H](C)NC(=O)[C@@H]1CSSC[C@H](NC(=O)[C@H](CCCNC(=N)N)NC(=O)CC[C@H](NC(=O)CCCCCCCCCCCCCCCCCCC(=O)O)C(=O)O)C(=O)N[C@@H](CC(N)=O)C(=O)N[C@@H]([C@@H](C)O)C(=O)N[C@@H](C)C(=O)N[C@@H]([C@@H](C)O)C(=O)N1)[C@@H](C)O [Compound 119, [19CD]-isoGlu-RC()NTATC()ATERLAEFLHRSSSSF-Gly(Me)-A-Ile(Me)-LSSTEVGSETP-NH2] ({C20 diacid-γGlu}-RCNTATCATERLAEFLHRSSSSF[Sar]A[NMeI]LSSTEVGSETP-NH2; disulfide 2-7)
- EC50 ([1]; cAMP induction in COS7 cells expressing hCTR2, average of a minimum of 3 determinations, read-out: hCTR2 EC50): 0.17 nM
- EC50 ([2]; cAMP induction in COS7 cells expressing hAMYR3, average of a minimum of 3 determinations, read-out: hAMY R3 EC50): 0.3 nM
- Solubility, Acetate buffer pH 4 [3]: SS (SS indicates solubility ≥ 1mg/ml)
- Solubility, Acetate buffer pH 5 [3]: SS (SS indicates solubility ≥ 1mg/ml)
- Solubility, Histidine buffer pH 6 [3]: SS (SS indicates solubility ≥ 1mg/ml)
- Solubility, Histidine buffer pH 7 [3]: SS (SS indicates solubility ≥ 1mg/ml)
- Solubility, Phosphate buffer pH 6 [3]: SS (SS indicates solubility ≥ 1mg/ml)
- Solubility, Phosphate buffer pH 7 [3]: SS (SS indicates solubility ≥ 1mg/ml)
- Solubility, Phosphate buffer pH 7.5 [3]: SS (SS indicates solubility ≥ 1mg/ml)
